Legend:
PO-12 [1] = test: RIA of Set 2 peptides with PO-12; assay type: binding, mouse; parameters: key: +++; ΦΦΦ strong effect; +, Φ weak effect; conditions: Set 2 biotinylated peptides 0.8 and 0.08 micromoles/L
Experimental: (§1) The binding of the 41 biotinylated peptides as set forth in Table 7 (peptide set 2) to the mouse monoclonal antibodies (PO# series) was assessed as follows: b) Assay 2 (radioimrnunoassay, RIA) using iodinated human inhibin A as tracer. Mabs (at an appropriate dilution, see above) were incubated with iodinated human recombinant inhibin in the presence of biotinylated peptides (0.8 and 0.08 micromoles/L final concentration) overnight at room temperature.

As #41 = test: RIA (Assay 2): competition with iodinated inhibin for As #41; assay type: binding, sheep; conditions: biotinylated peptides; 50% fall in binding of iodinated inhibin
Description: (§2) This assay was used to determine which peptides compete with iodinated 30 kDa inhibin for As #41, #128 and #1989 (used in the original inhibin RIA, Lapphorn et al., 1989, supra) in a RIA format. This assay identifies those peptides that bind to inhibin-binding antibodies in the antiserum and provides a stricter affinity and specificity assessment in identifying the appropriate epitopes than that found with Assay 1. The competition between peptide and hr-inhibin (used as the standard) was assessed from their ED50 values. The RIA consisted of the competition of iodinated inhibin and either hr-inhibin reference preparation, individual peptides or pools from the 4 peptide regions, with As #41, #128 and in some instances, As #1989. The peptides/inhibin/iodinated inhibin and antisera (at a prescribed dilution) were incubated overnight at 4° C. using standard methodologies. The antibody-bound iodinated inhibin was immunoprecipitated with the addition of an anti-sheep IgG serum raised in goats and the radioactivity was measured in a gamma counter. The concentration of peptide that gives a 50% fall in binding of iodinated inhibin (ED50) was determined and this value was used to give a measure of the affinity of the peptide for the antiserum. This methodology consisted of determining the ED50 of the peptide in the RIA using iodinated human recombinant inhibin as tracer with either As #41, As #128 or As #1989 and graded doses of either hr-inhibin or peptide as described in Example 2.

As #1989 = test: RIA (Assay 2): competition with iodinated inhibin for As #1989; assay type: binding, rabbit; conditions: biotinylated peptides; 50% fall in binding of iodinated inhibin
Description: as §2

PO-12 [2] = test: Solid phase binding of Set 2 peptides to PO-12; parameters: species or system mouse; key: +++; ΦΦΦ strong effect; +, Φ weak effect; conditions: Set 2 biotinylated peptides 24 micromoles/L
Experimental: (§3) The binding of the 41 biotinylated peptides as set forth in Table 7 (peptide set 2) to the mouse monoclonal antibodies (PO# series) was assessed as follows:
(§4) a) Assay 1 (solid phase assay). The assay was undertaken as outlined in assay 1 of Example 2. Biotinylated peptides (24 micromoles/L) were initially bound to streptavidin-coated plates. Mab (at an appropriate dilution to give a detectable response, 1:1000, 1:10000 dilution of the culture medium) was then added and incubated for 1.5 hr. The amount of bound Mab was determined using horseradish peroxidase-bound anti-mouse IgG serum and enzyme activity detected at 450-630 nm using an ELISA plate reader.

PO-14 [3] = test: Solid phase binding of Set 2 peptides to PO-14; parameters: species or system mouse; key: +++; ΦΦΦ strong effect; +, Φ weak effect; conditions: Set 2 biotinylated peptides 24 micromoles/L
Experimental: as §3, §4

As #128 [4] = test: RIA (Assay 2): competition with iodinated inhibin for As #128; assay type: binding, sheep; conditions: biotinylated peptides; 50% fall in binding of iodinated inhibin
Description: as §2

PO-14 [5] = test: RIA of Set 2 peptides with PO-14; assay type: binding, mouse; parameters: key: +++; ΦΦΦ strong effect; +, Φ weak effect; conditions: Set 2 biotinylated peptides 0.8 and 0.08 micromoles/L
Experimental: as §1

PO-14 [6] = test: RIA of Set 2 peptides with PO-14; assay type: binding, mouse; conditions: Set 2 biotinylated peptides 0.8 and 0.08 micromoles/L
Experimental: as §1

As #128 [7] = test: Solid phase assay (Assay 1): biotinylated peptides binding to As #128; parameters: species or system sheep; key: +++++ major contribution; + minor contribution; conditions: relative contribution
Experimental: This assay is a broad screen of the binding of the 31 biotinylated peptides to As #41 and #128 as recommended by Chiron Mimotopes.
The biotinylated peptides were initially bound to streptavidin-coated 96-well plates (2 hours at room temperature), antiserum #41 or #128 was then added (2 hours room temperature) to bind to the peptides. Detection of antiserum binding was assessed by a further incubation with an anti-ovine IgG serum labeled with the enzyme, horseradish peroxidase. The enzyme activity was assessed by conversion of a colorless substrate to a colored product that is detected in a spectrophotometer. The enzyme activity measured was proportional to the extent of the binding of the peptides.

R1 = test: RIA of Set 2 peptides with R1; assay type: binding, mouse; parameters: key: +++; ΦΦΦ strong effect; +, Φ weak effect; conditions: Set 2 biotinylated peptides 0.8 and 0.08 micromoles/L
Experimental: as §1

As #128 [8] = test: Competitive 2-site assay (Assay 3), approach (a); assay type: binding, sheep; parameters: key: +++++ major contribution; + minor contribution; conditions: relative contribution
Description: This assay was developed to establish the relative importance of the individual peptides and peptide pools (identified as epitopes in Assays 1 and 2) in the sandwich antibody format used in the IFMA with As #128 as capture antibody and As #41 as detection antibody. Two approaches (a and b) were considered, Approach (a) explores the cross-reaction of peptides with inhibin for the immobilized As #128 while Approach (b) assesses their cross-reaction with inhibin for As #41.
Approach (a). The biotinylated peptide pools and/or individual peptides at various concentrations, in combination with a fixed concentration of hr-inhibin, were incubated for 2 hours with As #128-coated plates. The plates were then washed to remove any unbound material. Iodinated As #41 was then added to bind to the bound hr-inhibin, the plates washed and the bound radioactivity was measured in a gamma counter. The counts measured were proportional to the amount of hr-inhibin bound to both antisera. The possibility that a peptide contained two epitopes capable of linking As #128 and #41 was assessed in the absence of added hr-inhibin.

Row | PO-12 SPB (PO-12 [2]) | PO-14 SPB (PO-14 [3]) | #128 Antibody screen Assay 1 (As #128 [7]) | Substance | PO-12 RIA (PO-12 [1]) | As#41 ED50 (As #41) [nM] | As#1989 ED50 (As #1989) [nM] | As#128 ED50 (As #128 [4]) [nM] | PO-14 RIA (PO-14 [5]) | PO-14 RIA (PO-14 [6]) | R1 RIA (R1) | #128 2-site competitive assay Assay 3 (As #128 [8])
1 | +++ | +++ |  | SGSG GAPPTPAQPYSLLP [Peptide 22] | Φ | 5000 | >2500 | 156 | Φ |  |  | 
2 |  | +++ |  | SGSG AALPGTMRPLHVRT [Peptide 27] | Φ | 5000 | >2500 | 2000 |  | ΦΦ |  | 
3 |  |  | + | SGSG ALRLLQRPPEEPAA [Peptide 6] |  | 26 | >2500 | 1800 |  |  | Φ | +

Source: patent US7511123B2, “Immuno-interactive fragments of the alpha-C subunit of inhibin” (Prince Henry's Institute of Medical Research, priority 1999, dated 2009)
